The text below walks through data of patent US10716783B2, “Prolylhydroxylase/ATF4 inhibitors and methods of use for treating neural cell injury or death and conditions resulting therefrom” (CORNELL UNIVERSITY, priority 2013, dated 2020).

Structures are written as SMILES. pEC50: −log10 of the molar value. Read-outs that look alike come from different tables or passages of the source.

For one assay, the system named is primary cortical neurons. The assay is described as follows: Hemin-induced toxicity in primary cortical neurons (MTT, LIVE/DEAD). Type of assay: cell-based. As to conditions: for pEC50: primary cortical neurons, MTT assay, read-out: EC50 for abrogating hemin toxicity. An excerpt: (§1) FIGS. 1A-1L: Structurally diverse HIF PHD inhibitors stabilize HIF-1 and abrogate toxicity induced by hemin, a byproduct of blood breakdown, in cortical neurons hippocampal neuroblasts and striatal neuroblasts (not shown).
(§2) Secondary injury from ICH has been attributed to hemin, a breakdown product of hemoglobin (from lysed red blood cells). To investigate the mechanisms of hemin toxicity to neurons in vitro, this experiment exposed primary cortical neurons, immortalized hippocampal neuroblasts (HT22 cells), and immortalized striatal neuroblasts (Q7 cells) to hemin for 24 hours. As expected, a dose dependent loss in viability as measured by MTT reduction or LIVE/DEAD assay in all three cell types was observed. […] To examine whether iron-dependent HIF PHD enzymes can be modulated to protect neurons from hemin-induced toxicity, this experiment examined structurally diverse inhibitors of the HIF PHDs: desferoxamine, cyclopirox, and dihydroxybenzoic acid. […] To test this notion further using a chemical biological approach, the protective effects of cyclopirox, a HIF PHD inhibitor, and a cyclopirox analog with no PHD inhibitory activity but with similar metal binding affinity to cyclopirox were compared. As expected, only the cyclopirox analog with PHD inhibitory activity was neuroprotective.
A general note: Tetrazolium assays rely on reduction of a dye to a coloured formazan, in cell work by metabolically active cells.

Assay [1] has as its system immortalized striatal neuroblasts (Q7 cells). Nature of the assay: Hemin-induced toxicity in striatal neuroblasts (MTT). Type of assay: cell-based. As to conditions: MTT assay, read-out: EC50 for abrogating hemin toxicity.
Excerpt: as §1, §2

Another assay concerns HIF-1 protein. The assay is described as follows: HIF-1 protein stabilisation in primary neurons (Western blot). In kind it is cell-based. The conditions noted are these: primary neurons, Western blot. The text has this:
FIGS. 1A-1L: Structurally diverse HIF PHD inhibitors stabilize HIF-1 and abrogate toxicity induced by hemin, a byproduct of blood breakdown, in cortical neurons hippocampal neuroblasts and striatal neuroblasts (not shown). […] FIGS. 6A-6I. […] Expression of ATF4 was forced into primary neurons, which induces death of these neurons by MTT assay (FIG. 6D) or LIVE/DEAD staining, Green is live, Red is dead (FIG. 6E).
Background: In western blotting, separated proteins are transferred to a membrane and probed.

Assay [2] deals with HIF PHDs. Nature of the assay: ODD-luciferase cell based assay.
In assay [3] the test system is immortalized hippocampal neuroblasts (HT22 cells). Nature of the assay: Hemin-induced toxicity in hippocampal neuroblasts (MTT). The conditions noted are these: MTT assay, read-out: EC50 for abrogating hemin toxicity. Type of assay: cell-based.
Excerpt: as §1
as §2, with “neuroprotective. […]” for “neuroprotective.”

Assay [4] relates to HIF PHDs. Nature of the assay: ODD-luciferase reporter mice, in vivo bioluminescence imaging and tissue lysates. As to conditions: in vivo bioluminescence imaging; intraperitoneal; adaptoquin 30 mg/kg. The text has this: FIGS. 3A-3G. Validation of adaptoquin as a novel HIF PHD inhibitor. […] Under steady state conditions, activity of HIF PHD2 with its co-substrate 2-oxoglutarate involves two peaks that represent non-hydroxylated and hydroxylated peptide. The hydroxylated peptide disappears in the presence of HIF PHD2 inhibition by adaptoquin. […] The reporter contains the ODD domain of HIF-1 which confers HIF PHD regulated stability on it. It is expressed in all cells of the body, but is destabilized in the absence of HIF PHD inhibition and stabilized in its presence. Quantitative measurements confirm stability of the ODD-luc in brain, kidney and liver (FIGS. 3D and 3E.).
To identify HIF PHD inhibitors suitable for testing in ICH, the experiment first sought to identify which of the known HIF PHD inhibitors could penetrate the blood brain barrier to inhibit HIF PHD activity in the CNS. To monitor HIF PHD activity dynamically, the experiment utilized mice that had previously been engineered to ubiquitously express the oxygen degradation domain (ODD) of HIF-1α fused to firefly luciferase. The ODD domain contains proline 402 and 564, which are hydroxylated by the HIF PHDs to degrade HIF-1 or the ODD-luciferase. Accordingly, these mice have been used previously to track HIF PHD activity in diverse organs in vivo using in vivo bioluminescence imaging.
To verify that the changes in light in the brain reflect parenchymal changes in ODD-luciferase levels rather than increases in changes in skin or dural ODD-luciferase, ODD-luciferase activity was measured normalized to total protein in lysates from distinct brain regions using a luminometer.
On the technique in general: Reporter assays use an easily measured gene product as a stand-in for the process of interest.

As to `CC(=O)N(O)CCCCCNC(=O)CCC(=O)N(O)CCCCCNC(=O)CCC(=O)N(O)CCCCCN` [Desferoxamine], the values for the pEC50 (with primary cortical neurons; in assay [1]; in assay [3]) were 4.47, 4.57 and 4.29, respectively. Besides, in the assay with HIF-1 protein, the “Stabilisation of HIF-1 protein” value is “stabilize HIF-1 protein”. For the same molecule, in the assay on HIF PHDs [2], the “ODD-luciferase activity in cell based assays” value is recorded as “induced the ODD-luciferase activity in cell based assays”. In addition, the “ODD-luciferase activity in brain” value in the assay on HIF PHDs [4] was “failed to increase ODD-luciferase activity in the brain”.

For `Cc1cc(C2CCCCC2)n(O)c(=O)c1` [cyclopirox], in the assay with primary cortical neurons (Primary cortical neuron), the pEC50 was 5.85. Moreover, in the assay on primary cortical neurons (neurons, FIGS. 1M, 1O-1R), the “Prevention of hemin-induced death” value is reported as “prevents hemin-induced death”. Also, the “Stabilisation of HIF-1 protein” value with HIF-1 protein is on record as “stabilize HIF-1 protein”. Besides, the “ODD-luciferase activity in cell based assays” value in the assay on HIF PHDs [2] is reported as “induced the ODD-luciferase activity in cell based assays”. Also, the “ODD-luciferase activity in brain” value with HIF PHDs [4] was “failed to increase ODD-luciferase activity in the brain”.

By pEC50 is commonly meant the EC50 on a negative log10 scale, so that one unit is a factor of ten.
